# Experimental data as given in EP1572665B1, “1-N-PHENYLAMINO-1H-IMIDAZOLE DERIVATIVES AS AROMATASE INHIBITORS” (LABORATOIRE THERAMEX, priority 2002, dated 2004).
# Structures can show the parent of a compound that is named as a salt.
# Experiments:
# aromatase = target: T1, aromatase (Rattus norvegicus, UniProt P22443); experiment: Inhibition of aromatase in vivo (inhibition of the preovulatory surge of plasma estradiol levels); settings: adult female Wistar rats, single oral administration of 10 micrograms/kg on diestrus, plasma estradiol 24 hours later, vs vehicle controls, n = number of independent studies; for inhibition at 0.01 mg/kg: rat, read-out: % inhibition at 10 µg/kg
# T1 construct: In the rat, estradiol is physiologically synthesized to high circulating levels; from tissue; host or cells: whole animal: adult female Wistar rats (endogenous aromatase)
# T1 sequence (P22443 1-508): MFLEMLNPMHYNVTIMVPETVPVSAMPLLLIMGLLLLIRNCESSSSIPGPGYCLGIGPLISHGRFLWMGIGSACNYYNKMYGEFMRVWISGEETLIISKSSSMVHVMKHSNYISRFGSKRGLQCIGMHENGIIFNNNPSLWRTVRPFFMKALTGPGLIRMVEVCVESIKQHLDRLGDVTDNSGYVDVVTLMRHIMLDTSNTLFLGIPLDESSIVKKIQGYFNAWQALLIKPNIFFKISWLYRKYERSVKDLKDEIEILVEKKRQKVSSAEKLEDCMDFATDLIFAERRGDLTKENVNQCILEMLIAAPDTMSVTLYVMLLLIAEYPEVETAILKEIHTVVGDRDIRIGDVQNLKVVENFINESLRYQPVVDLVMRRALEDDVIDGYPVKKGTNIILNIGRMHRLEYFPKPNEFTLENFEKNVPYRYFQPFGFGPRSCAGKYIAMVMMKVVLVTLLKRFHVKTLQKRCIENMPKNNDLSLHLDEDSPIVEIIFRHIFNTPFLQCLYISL
# From the text: Aromatase is the steroidogenic enzyme responsible for the biosynthesis of estradiol, the main female sex hormone among estrogens. In the rat, estradiol is physiologically synthesized to high circulating levels in a particular period during the 4-day estrous cycle : it is the so-called preovulatory surge taking place in the afternoon of proestrus, just before ovulation which occurs during the night between proestrous and estrous phases. A sensitive physiological model for in vivo evaluation of aromatase inhibition was developped based on the inhibition of this preovulatory surge of estradiol levels.
# Adult female Wistar rats are monitored for regular 4-day estrous cyclicity by daily vaginal smear examination; after 2 or 3 regular cycles, animals are treated by a single oral administration of the very low discriminative dose of 10 micrograms/kg in a 4 ml/kg volume around 04:00 PM on diestrus, i.e. on the day before proestrus. Precisely 24 hours later, aortic blood samples are drawn under gaseous anesthesia. Plasma estradiol levels are measured by radioimmunoassay with commercially available kits (Diagnostic Systems Laboratories, Webster, Texas, U. S. A.). Control and test groups usually consist of 7 to 10 rats, depending on the number of regularly cycling rats to distribute among study groups. Results are expressed in pg/ml and then in % of inhibition taking the estradiol levels of control animals receiving only the oral vehicle as the 100 % reference to allow comparisons between different independent studies, since the preovulatory surge level may vary in each control group from one study to another between about 25 to 40 pg/ml. Table B : Inhibition of aromatase in vivo
# human aromatase = target: T2, human aromatase (Homo sapiens, UniProt P11511); experiment: Inhibition of human aromatase in vitro in JEG-3 cells (3H-water release from 1β-3H-androstenedione); format: cell-based; settings: JEG-3 cell line; 1β-3H-androstenedione 10 nM; 2 hours incubation; mean ± sem
# T2 construct: The JEG-3 cell line, derived from a human placental choriocarcinoma, is intrinsically very rich in human aromatase; endogenous in cells; host or cells: JEG-3 (human placental choriocarcinoma)
# T2 sequence (P11511 1-503): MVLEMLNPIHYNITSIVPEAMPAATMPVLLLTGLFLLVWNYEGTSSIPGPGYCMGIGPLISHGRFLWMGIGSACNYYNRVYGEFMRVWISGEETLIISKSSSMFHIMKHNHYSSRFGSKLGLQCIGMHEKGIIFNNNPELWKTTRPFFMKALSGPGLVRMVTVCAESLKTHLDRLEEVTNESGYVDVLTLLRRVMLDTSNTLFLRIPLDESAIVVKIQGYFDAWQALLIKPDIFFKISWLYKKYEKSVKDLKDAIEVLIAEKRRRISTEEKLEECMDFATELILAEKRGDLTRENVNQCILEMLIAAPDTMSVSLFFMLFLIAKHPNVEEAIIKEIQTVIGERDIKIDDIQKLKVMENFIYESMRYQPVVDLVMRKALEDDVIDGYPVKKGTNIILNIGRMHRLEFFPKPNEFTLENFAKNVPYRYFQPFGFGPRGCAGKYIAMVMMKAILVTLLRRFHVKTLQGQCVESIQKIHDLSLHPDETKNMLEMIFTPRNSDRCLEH
# Procedure: Stocks of JEG-3 cells are grown up to 80 % of confluence as monolayers in plastic flasks in minimum Eagle's medium with 1 g/l glucose and 10 % decomplemented fetal calf serum at pH 7.4 and 37° C, under a 5 % CO2 atmosphere. Then, 24 hours before aromatase activity measurement, JEG-3 cells are distributed for seeding in 96-well microplates (60,000 to 100,000 viable cells in 100 µl of culture medium per well) ; 24 hours later, microplates are rinsed and fresh medium containing the radioactive aromatase substrate (1β-^3H-androstenedione, 10 nM) is added together with test compounds dissolved with 1 % dimethylsulfoxide in a test concentration range between 10^-11 and 10^-4 M in a total volume of 150 µl.
# Two hours after the beginning of the incubation, 100 µl of the supernatants are transferred to homologous new 96-well microplates. A solution of dextran-coated charcoal (1 %) is added in each well (100 µl/well) ; after standing for 10 minutes on ice, microplates are centrifuged (1500 g) for 10 more minutes at 4° C. All steroids, including the radioactive substrate and the newly biosynthesized estrogens, are trapped complexed by the charcoal ; only ^3H-water specifically formed during aromatisation of 1β-^3H-androstenedione, involving a specific oxidative step removing the 1β-^3H, remains in the supernatant at this stage. […]
inhibition at 0.01 mg/kg (aromatase),% inhibition at 10 µg/kg (aromatase),IC50 (human aromatase),SMILES
60%,–,–,"N#Cc1ccc(N(Cc2ccc(F)c(F)c2)n2ccnc2)cc1 [Example 17, 4-[N-(1H-imidazol-l-yl)-N-(3,4-difluorophenylmethyl)amino]benzonitrile]"
–,35%,0.3 ± 0.04 nM,"N#Cc1ccc(N(Cc2ccc(Br)cc2)n2cnnc2)cc1 [YM 511, reference compound]"
57 to 59%,–,–,"N#Cc1ccc(CN(c2ccc(C#N)cc2)n2ccnc2)cc1 [Example 11, 4-[N-(1H-imidazol-1-yl)-N-(4-cyanophenylmethyl)amino]benzonitrile, hydrochloride]"

# The next lines start with the compound.
SMILES,inhibition at 0.01 mg/kg (aromatase),% inhibition at 10 µg/kg (aromatase),IC50 (human aromatase)
"N#Cc1ccc(N(Cc2ccc(Cl)cc2)n2ccnc2)cc1 [Example 7, 4-[N-(1H-imidazol-1-yl)-N-(4-chlorophenylmethyl)amino]benzonitrile, hydrochloride]",47%,–,–
"N#Cc1ccc(N(Cc2ccc(F)cc2)n2ccnc2)cc1 [Example 14, 4-[N-(1H-imidazol-1-yl)-N-(4-fluorophenylmethyl)amino]benzonitrile, hydrochloride hemihydrate]",49 to 57%,–,–
"N#Cc1ccc(N(Cc2ccc(C(F)(F)F)cc2)n2ccnc2)cc1 [Example 6, 4-[N-(1H-imidazol-1-yl)-N-(4-trifluoromethylphenylmethyl)amino]-benzonitrile]",57%,–,–
"CC(C)(C#N)c1cc(Cn2cncn2)cc(C(C)(C)C#N)c1 [Anastrozole, anastrozole, reference compound]",18 to 33%,–,–
